Common to all, as to type: biochemical
The target in assay [1] is MAGL (Mus musculus (Mouse), UniProt O35678). Briefly: Competitive ABPP, % inhibition at 1 uM, MAGL. The method, then: (§1) In Vitro Competitive Activity-Based Protein Profiling.
(§2) Proteomes (mouse brain membrane fraction or cell lysates) ([…], 1.0 mg/mL total protein concentration) were preincubated with varying concentrations of inhibitors at 37° C. After 30 min, FP-Rh (1.0 μL, 50 μM in DMSO) was added and the mixture was incubated for another 30 min at 37° C. Reactions were quenched with SDS loading buffer (50 μL—4×) and run on SDS-PAGE.

For assay [2], the target named is FAAH (Mus musculus (Mouse), UniProt O08914). Nature of the assay: Competitive ABPP, % inhibition at 1 uM, FAAH. The procedure:
as §1
Proteomes (mouse brain membrane fraction or cell lysates) ([…], 1.0 mg/mL total protein concentration) were preincubated with varying concentrations of inhibitors at 37° C. After 30 min, FP-Rh (1.0 μL, 50 μM in DMSO) was added and the mixture was incubated for another 30 min at 37° C. Reactions were quenched with SDS loading buffer (50 μL—4×) and run on SDS-PAGE. Following gel imaging, serine hydrolase activity was determined by measuring fluorescent intensity of gel bands corresponding to MAGL, ABHD6 and FAAH using ImageJ 1.43u software.

The target in assay [3] is ABHD6 (Mus musculus (Mouse), UniProt Q8R2Y0). Nature of the assay: Competitive ABPP, % inhibition at 1 uM, ABHD6. The procedure:
as §1, §2

Chain of FAAH (O08914 whole entry): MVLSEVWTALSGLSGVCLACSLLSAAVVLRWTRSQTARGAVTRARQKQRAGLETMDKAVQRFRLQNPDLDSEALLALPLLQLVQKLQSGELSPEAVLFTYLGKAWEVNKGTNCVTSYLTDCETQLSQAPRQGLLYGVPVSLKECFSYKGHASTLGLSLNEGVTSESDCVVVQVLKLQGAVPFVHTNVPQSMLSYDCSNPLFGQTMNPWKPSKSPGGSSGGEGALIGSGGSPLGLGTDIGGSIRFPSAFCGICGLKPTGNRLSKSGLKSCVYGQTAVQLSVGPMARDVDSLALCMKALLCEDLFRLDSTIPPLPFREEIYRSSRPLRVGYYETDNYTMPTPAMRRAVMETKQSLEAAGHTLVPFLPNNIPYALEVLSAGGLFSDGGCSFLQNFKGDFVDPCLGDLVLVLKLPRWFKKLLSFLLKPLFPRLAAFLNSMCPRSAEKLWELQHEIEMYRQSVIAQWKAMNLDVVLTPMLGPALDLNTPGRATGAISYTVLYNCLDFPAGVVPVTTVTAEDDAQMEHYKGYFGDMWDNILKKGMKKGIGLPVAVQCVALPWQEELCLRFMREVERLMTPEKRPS
Chain of ABHD6 (Q8R2Y0 whole entry): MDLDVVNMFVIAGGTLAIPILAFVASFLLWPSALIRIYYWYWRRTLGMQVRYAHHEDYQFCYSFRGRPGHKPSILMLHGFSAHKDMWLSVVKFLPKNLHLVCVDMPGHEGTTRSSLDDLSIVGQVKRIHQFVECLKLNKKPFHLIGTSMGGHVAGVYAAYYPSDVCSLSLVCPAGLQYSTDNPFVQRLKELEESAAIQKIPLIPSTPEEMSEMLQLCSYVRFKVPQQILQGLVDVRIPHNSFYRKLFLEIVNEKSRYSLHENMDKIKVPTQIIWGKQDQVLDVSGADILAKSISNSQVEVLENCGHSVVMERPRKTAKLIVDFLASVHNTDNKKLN
Chain of MAGL (O35678 whole entry): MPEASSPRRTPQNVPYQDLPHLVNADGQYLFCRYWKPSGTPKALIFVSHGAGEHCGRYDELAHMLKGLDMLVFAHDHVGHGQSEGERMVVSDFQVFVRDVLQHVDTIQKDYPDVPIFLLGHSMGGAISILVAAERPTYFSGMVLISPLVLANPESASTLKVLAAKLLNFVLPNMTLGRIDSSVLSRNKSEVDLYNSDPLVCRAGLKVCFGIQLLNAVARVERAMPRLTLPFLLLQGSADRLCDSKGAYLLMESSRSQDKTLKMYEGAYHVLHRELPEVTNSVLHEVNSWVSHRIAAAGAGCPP

For the compound `C[C@H]1CN(Cc2ccc(N3CCOCC3)cc2C(F)(F)F)CCN1C(=O)OC(C(F)(F)F)C(F)(F)F` [Example 9j, 1,1,1,3,3,3-hexafluoropropan-2-yl(2S)-2-methyl-4-[[4-(morpholin-4-yl)-2-(trifluoromethyl)phenyl]methyl]piperazine-1-carboxylate], the inhibition – broadly, the percentage by which the read-out fell short of the control – at 1 µM in assay [1] is 25 to 75%; in assay [2], < 25%; in assay [3] it was 25 to 75%.

`C[C@@H]1CN(Cc2ccc(N3CCOCC3)cc2C(F)(F)F)CCN1C(=O)OC(C(F)(F)F)C(F)(F)F` [Example 9l, 1,1,1,3,3,3-hexafluoropropan-2-yl(2R)-2-methyl-4-[[4-(morpholin-4-yl)-2-(trifluoromethyl)phenyl]methyl]piperazine-1-carboxylate]: the inhibition at 1 µM in assay [1], in assay [2] and in assay [3] was < 25% in each case.

`CC1CN(C(=O)OC(C(F)(F)F)C(F)(F)F)CCN1C(c1ccc(Cl)cc1)c1ccc(Cl)cc1` (stereo not drawn) [Example 2h, 1,1,1,3,3,3-hexafluoropropan-2-yl 4-[bis(4-chlorophenyl)methyl]-3-methylpiperazine-1-carboxylate]: the inhibition at 1 µM was 25 to 75% in assay [1], < 25% in assay [2] and 25 to 75% in assay [3].

Take `Cc1cc(-c2ccc(CN3CCN(C(=O)OC(C(F)(F)F)C(F)(F)F)CC3)c(F)c2)cc(C)n1` [Example 11aa, 1,1,1,3,3,3-hexafluoropropan-2-yl 4-[[4-(2,6-dimethylpyridin-4-yl)-2-fluorophenyl]methyl]piperazine-1-carboxylate]: the inhibition at 1 µM was > 75% in assay [1], < 25% in assay [2] and 25 to 75% in assay [3].

For `O=C(OC(C(F)(F)F)C(F)(F)F)N1CCN(Cc2c(Cl)cccc2N2CCCC2)CC1` [Example 9m, 1,1,1,3,3,3-hexafluoropropan-2-yl 4-[[2-chloro-6-(pyrrolidin-1-yl)phenyl]methyl]piperazine-1-carboxylate], the inhibition at 1 µM in assay [1] was 25 to 75%; in assay [2], < 25%; in assay [3], 25 to 75%.

Consider `Cc1ccccc1-c1ccc(CN2CCN(C(=O)OC(C(F)(F)F)C(F)(F)F)CC2)nc1C` [Example 11u, 1,1,1,3,3,3-hexafluoropropan-2-yl 4-[[6-methyl-5-(2-methylphenyl)pyridin-2-yl]methyl]piperazine-1-carboxylate], for which the inhibition at 1 µM is 25 to 75% in assay [1], < 25% in assay [2] and 25 to 75% in assay [3].

With `Cc1nc(CN2CCN(C(=O)OC(C(F)(F)F)C(F)(F)F)CC2)ccc1-c1ccccc1F` [Example 11v, 1,1,1,3,3,3-hexafluoropropan-2-yl 4-[[5-(2-fluorophenyl)-6-methyl-pyridin-2-yl]methyl]piperazine-1-carboxylate], the inhibition at 1 µM in assay [1] was > 75%; in assay [2], < 25%; in assay [3], > 75%.

For `Cc1cc(-c2cccnc2)ccc1CN1CCN(C(=O)OC(C(F)(F)F)C(F)(F)F)CC1` [Example 11l, 1,1,1,3,3,3-hexafluoropropan-2-yl 4-[[2-methyl-4-(pyridin-3-yl)phenyl]methyl]piperazine-1-carboxylate], the results for the inhibition at 1 µM in assay [1], in assay [2] and in assay [3] were > 75%, < 25% and > 75%, respectively.

As for `Cc1cccc(-c2ccc(CN3CCN(C(=O)OC(C(F)(F)F)C(F)(F)F)CC3)c(C)c2)n1` [Example 11z, 1,1,1,3,3,3-hexafluoropropan-2-yl 4-[[2-methyl-4-(6-methylpyridin-2-yl)phenyl]methyl]piperazine-1-carboxylate], the inhibition at 1 µM in assay [1] was 25 to 75%; in assay [2], < 25%; in assay [3], 25 to 75%.

With `O=C(OC(C(F)(F)F)C(F)(F)F)N1CCN(Cc2ccc(C(=O)N3CCCC3)cc2Cl)CC1` [Example 9bd, 1,1,1,3,3,3-hexafluoropropan-2-yl 4-(2-chloro-4-(pyrrolidine-1-carbonyl)benzyl)piperazine-1-carboxylate], the inhibition at 1 µM in assay [1] was 25 to 75%; in assay [2] it was < 25%; in assay [3], 25 to 75%.

In the case of `Cc1cccc(-c2ccc(CN3CCN(C(=O)OC(C(F)(F)F)C(F)(F)F)CC3)c(C)n2)c1` [Example 11d, 1,1,1,3,3,3-hexafluoropropan-2-yl 4-[[2-methyl-6-(3-methylphenyl)pyridin-3-yl]methyl]piperazine-1-carboxylate], the inhibition at 1 µM in assay [1] is > 75%; in assay [2], < 25%; in assay [3], 25 to 75%.

Consider `COc1ccc(-c2cc(CN3CCN(C(=O)OC(C(F)(F)F)C(F)(F)F)CC3)no2)cc1` [Example 10a, 1,1,1,3,3,3-hexafluoropropan-2-yl 4-((5-(4-methoxyphenyl)isoxazol-3-yl)methyl)piperazine-1-carboxylate], for which the inhibition at 1 µM in assay [1] was > 75%; in assay [2], < 25%; in assay [3], 25 to 75%.

With `O=C(OC(C(F)(F)F)C(F)(F)F)N1CCN(Cc2ccc(N3CCOCC3)cc2C(F)(F)F)CC1` [Example 9aj, 1,1,1,3,3,3-hexafluoropropan-2-yl 4-[[4-(morpholin-4-yl)-2-(trifluoromethyl)phenyl]methyl]piperazine-1-carboxylate], the inhibition at 1 µM in assay [1] was 25 to 75%; in assay [2], < 25%; in assay [3], 25 to 75%.

As to `O=C(OC(C(F)(F)F)C(F)(F)F)N1CCN(Cc2ccc(-c3cccc(F)c3)cn2)CC1` [Example 11k, 1,1,1,3,3,3-hexafluoropropan-2-yl 4-[[5-(3-fluorophenyl)pyridin-2-yl]methyl]piperazine-1-carboxylate], the inhibition at 1 µM in assay [1] was > 75%; in assay [2], < 25%; in assay [3], 25 to 75%.

For `Cc1cc(-c2ccncc2C)ccc1CN1CCN(C(=O)OC(C(F)(F)F)C(F)(F)F)CC1` [Example 11n, 1,1,1,3,3,3-hexafluoropropan-2-yl 4-[[2-methyl-4-(3-methylpyridin-4-yl)phenyl]methyl]piperazine-1-carboxylate], the inhibition at 1 µM in assay [1] is > 75%; in assay [2] it was < 25%; in assay [3] it was > 75%.

Consider `Cc1ccccc1-c1ccc(CN2CCN(C(=O)OC(C(F)(F)F)C(F)(F)F)CC2)c(C)n1` [Example 11b, 1,1,1,3,3,3-hexafluoropropan-2-yl 4-[[2-methyl-6-(2-methylphenyl)pyridin-3-yl]methyl]piperazine-1-carboxylate], for which the inhibition at 1 µM in assay [1] was > 75%; in assay [2], < 25%; in assay [3], 25 to 75%.

Consider `Cc1cccc(-c2ccc(CN3CCN(C(=O)OC(C(F)(F)F)C(F)(F)F)CC3)nc2C)c1` [Example 11ad, 1,1,1,3,3,3-hexafluoropropan-2-yl 4-[[6-methyl-5-(3-methylphenyl)pyridin-2-yl]methyl]piperazine-1-carboxylate], for which the inhibition at 1 µM was > 75% in assay [1], < 25% in assay [2] and 25 to 75% in assay [3].

For `C[C@H]1CN(Cc2ccc(N3CCOCC3)cc2F)CCN1C(=O)OC(C(F)(F)F)C(F)(F)F` [Example 9i, 1,1,1,3,3,3-hexafluoropropan-2-yl(2S)-4-[[2-fluoro-4-(morpholin-4-yl)phenyl]methyl]-2-methylpiperazine-1-carboxylate], the inhibition at 1 µM in assay [1] was 25 to 75%; in assay [2], < 25%; in assay [3], 25 to 75%.

As for `CC(C)c1cc(-c2ccccc2)ccc1CN1CCN(C(=O)OC(C(F)(F)F)C(F)(F)F)CC1` [Example 9at, 1,1,1,3,3,3-hexafluoropropan-2-yl 4-((3-isopropyl-[1,1′-biphenyl]-4-yl)methyl)piperazine-1-carboxylate], the results for the inhibition at 1 µM in assay [1], in assay [2] and in assay [3] were 25 to 75%, < 25% and < 25%, respectively.

Regarding `Cc1cc(-c2cccnc2C)ccc1CN1CCN(C(=O)OC(C(F)(F)F)C(F)(F)F)CC1` [Example 11s, 1,1,1,3,3,3-hexafluoropropan-2-yl 4-[[2-methyl-4-(2-methylpyridin-3-yl)phenyl]methyl]piperazine-1-carboxylate], the inhibition at 1 µM is 25 to 75% in assay [1], < 25% in assay [2] and 25 to 75% in assay [3].

Take `Cc1cnccc1-c1ccc(CN2CCN(C(=O)OC(C(F)(F)F)C(F)(F)F)CC2)c(F)c1` [Example 11ab, 1,1,1,3,3,3-hexafluoropropan-2-yl 4-[[2-fluoro-4-(3-methylpyridin-4-yl)phenyl]methyl]piperazine-1-carboxylate]: the inhibition at 1 µM in assay [1] is > 75%; in assay [2] it was < 25%; in assay [3], 25 to 75%.

As to `O=C(OC(C(F)(F)F)C(F)(F)F)N1CCN(Cc2ccc(-c3cccc(F)c3)cc2F)CC1` [Example 11o, 1,1,1,3,3,3-hexafluoropropan-2-yl 4-[[2-fluoro-4-(3-fluorophenyl)phenyl]methyl]piperazine-1-carboxylate], the inhibition at 1 µM in assay [1] was > 75%; in assay [2] it was < 25%; in assay [3], 25 to 75%.

`Cc1cccc(-c2ccc(CN3CCN(C(=O)OC(C(F)(F)F)C(F)(F)F)CC3)c(Oc3ccccc3)c2)c1` [Example 11r, 1,1,1,3,3,3-hexafluoropropan-2-yl 4-[[4-(3-methylphenyl)-2-phenoxyphenyl]methyl]piperazine-1-carboxylate]: the inhibition at 1 µM in assay [1] is 25 to 75%; in assay [2], < 25%; in assay [3] it was < 25%.

The values are drawn from patent US9133148B2, “Carbamate compounds and of making and using same” (Abide Therapeutics, Inc., priority 2012, dated 2015).
